pIC50: −log10 of the molar value.

Our source for the IC50 values is BindingDB's records for doi:10.1016/j.bmc.2006.03.021 (Vernalis (R&D), 2006).

The test deals with T1, Serine/threonine-protein kinase Chk1 (Homo sapiens, UniProt O14757).
T1 sequence (O14757 whole entry): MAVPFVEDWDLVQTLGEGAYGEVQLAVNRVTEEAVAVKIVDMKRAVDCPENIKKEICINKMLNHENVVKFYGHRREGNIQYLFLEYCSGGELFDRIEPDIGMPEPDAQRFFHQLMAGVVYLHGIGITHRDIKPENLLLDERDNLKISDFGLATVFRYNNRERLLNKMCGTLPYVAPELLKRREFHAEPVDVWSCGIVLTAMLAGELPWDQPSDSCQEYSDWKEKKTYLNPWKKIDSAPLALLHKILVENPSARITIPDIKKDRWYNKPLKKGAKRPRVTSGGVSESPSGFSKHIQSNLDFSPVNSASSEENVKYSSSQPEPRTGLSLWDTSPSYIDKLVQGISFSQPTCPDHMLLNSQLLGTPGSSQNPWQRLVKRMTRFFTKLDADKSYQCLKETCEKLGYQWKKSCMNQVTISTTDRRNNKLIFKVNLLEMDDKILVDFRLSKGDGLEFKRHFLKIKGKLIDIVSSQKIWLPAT
Briefly: Chk1 Enzymatic Assay. The note with it: pH 7.5; 30 °C. Here is the method:
Chk1 kinase activity was assayed in reaction buffer containing substrate peptide, enzyme, and inhibitor in the presence of 100uM ATP/[gamma-33P] ATP. 33P incorporation was measured using a Perkin-Elmer Trilux scintillation counter. The IC50 is the inhibitor concentration, which inhibits 50% of kinase activity that catalyzes the transfer of the terminal phosphate from 33P labeled ATP to the substrate.
On to `Nc1ncnc2nc(SCC(=O)O)[nH]c12` [2-[(6-amino-9H-purin-8-yl)sulfanyl]acetic acid], for which the pIC50 was 4.50. `NN1C(=O)C([c-]2c(=O)[nH]c3ccc([N+](=O)[O-])cc32)=[S+]C1=S` [3-amino-5-[(3Z)-5-nitro-2-oxo-2,3-dihydro-1H-indol-3-ylidene]-2-sulfanylidene-1,3-thiazolidin-4-one]: the pIC50 is 4.14. `COc1ccc(Cl)cc1-c1nnc(Nc2ccc(C(=O)O)cc2)s1` [4-{[5-(5-chloro-2-methoxyphenyl)-1,3,4-thiadiazol-2-yl]amino}benzoic acid]: the pIC50 is 4.58. Compared with the last compound, the pIC50 is 0.44 log units higher.

In turn, `Cc1[nH]nc2c1C(c1ccc(O)c(O)c1)C(C#N)C(=N)O2` (stereo unspecified) [6-amino-4-(3,4-dihydroxyphenyl)-3-methyl-1H,4H-pyrano[2,3-c]pyrazole-5-carbonitrile] gave a pIC50 of 4.69. The pIC50 values of the last two compounds are within 0.2 log units of each other. In the case of `Clc1cc2c(cc1CN=Nc1nnc3c(n1)[nH]c1ccccc13)OCO2` [(1E)-1-[(6-chloro-2H-1,3-benzodioxol-5-yl)methylidene]-2-{5H-[1,2,4]triazino[5,6-b]indol-3-yl}hydrazine], the pIC50 is 4.70. In the case of `NCCCNc1nc(F)c(Cl)c(C2c3ccccc3Sc3ccccc32)c1F` [N-(3-aminopropyl)-5-chloro-3,6-difluoro-4-(9H-thioxanthen-9-yl)pyridin-2-amine], the pIC50 is 4.80.
